A short description of data set [1]: Cell viability (ATP, CellTiter-Glo) in parallel with metabolomics experiments. The note with it: human, Percentage of viability (ATP) compared to the vehicle control, n = 6. The procedure:
(§1) HepG2 cells (ECACC, UK, maximum passage number 9) were maintained and grown on Dulbecco’s MEM media supplemented with 1% v/v of penicillin/streptomycin, L-glutamine (200 mM, 1% v/v), non-essential amino acids (100x, 1% v/v), and 10% FBS (PAN-Biotech, Aidenbach, Germany) in 75 cm^2 culture flasks (TPP, Switzerland). For cell passaging (~ 80% confluency) media was removed and cells were washed twice with pre-warmed calcium and magnesium free Dulbecco’s PBS (PAN-Biotech, Aidenbach, Germany). Trypsin was used for cell detachment. Then, 20 mL culture medium was added, and single-cell suspensions were obtained by passing the suspension through a Combitip (Eppendorf, Germany). A fraction of the cell suspension was then transferred to a new culture vessel. For experiments, 15,000 cells per well (passage 5-9) were seeded in 96-well flat-bottom plates (TPP, Switzerland) and incubated for 24 h for cell attachment (37 °C and 5% CO^2). Afterwards, culture media were exchanged, test substances applied, and plates incubated for 48 h (37 °C and 5% CO^2).
For each substance, one 96-well plate was set up with 6 replicates per concentration, 12 replicates for vehicle controls (yielding a final concentration of 0.5% DMSO in the well), 6 replicates for positive controls (Bezafibrate 1000 μM), and 6 replicates for blank controls (media without cells). To minimize potential evaporation, the outer rows and columns of the plate were omitted and filled with PBS instead. Reference samples prepared from lyophilized HepG2 cells were measured in parallel throughout the entire analytical process (technical replicates). […] Lyophilized HepG2 cells reference samples were used to account for variability between plates and in concentration series for linearity checks. After 48 h, the assays were stopped by washing the wells once with 100 μL 0.9% NaCl followed by snap freezing the plates on liquid nitrogen for 5 s. Plates were placed immediately on dry ice and 50 μL ice-cooled isopropanol 80% (v/v) were added to quench metabolism and precipitate proteins. Plates were stored at − 80 °C until LC/ MS analysis.
(In general: ATP-based viability assays read luminescence as a measure of living cells.)

Data set [2] concerns HepG2 cells. Description: Cytotoxicity (CellTox Green) in parallel with metabolomics experiments. The note with it: intermediate concentration (C3; C2 for aroclor), 48 h.
Method: Commercially available cytotoxicity (CellTox™ Green) and ATP content based (CellTiter-Glo®) assays (Promega GmbH, Walldorf, Germany) were multiplexed in a single 96-well plate following the manufacturer’s instructions. For positive controls, lysis solution 25X was added in wells containing vehicle control treated cells (0.5% DMSO). Then, 10X CellTox Green reagent was added in all wells, plates were shaken for 1 min, and incubated in the dark for 15 min at room temperature. […] Afterwards, wells were washed with PBS, 100 μL of Dulbecco’s MEM media were added to each well and subsequently 100 μL of 1X CellTiter-Glo were added. Plates were shaken for 2 min and incubated in the dark for 8 min at room temperature. Luminescence was measured in the GloMax®-Multi Detection System (Promega) and was normalized to the values of the vehicle control. Cytotoxicity and ATP cell viability analysis were carried out for range finder pre-tests and in parallel with metabolomics experiments in plates handled and treated exactly as the ones used for metabolite profiling.
Data set [3] concerns HepG2 cells. The data set can be described thus: Range finder cell viability (CellTiter-Glo, ATP) dose response. The class given is cell-based, human. As to conditions: estimated from ATP dose response curve, 48 h, rounded; for EC50: Homo sapiens, HepG2. Here is the method: as §1
In order to define appropriate dose levels, range finder experiments were performed prior to metabolome experiments. Substances were administered to HepG2 cells in increasing concentrations and incubated for 48 h (6 replicates per concentration). Viability and cytotoxicity tests were performed as described previously. Luminescence values resulting from CellTiter-Glo® assays were used to build dose response curves. Curve fitting and effective concentrations (ECs) values were calculated in R using three-parameter Weibull model (W1.3). To obtain a full metabolome-based dose-response effect, five concentrations (EC1, EC5, EC15, EC50, EC85) were selected for metabolome experiments (Table 2). […] Calculated ECs values were rounded to the nearest integer number for dose selection.

Consider five compounds from PMC10693528, “A high-throughput metabolomics in vitro platform for the characterization of hepatotoxicity” (Cell Biology and Toxicology, 2023).

As a reminder, the viability is a read-out of living cells in per cent, often relative to untreated cells. As usually defined, the EC50 is the midpoint of the concentration-response curve.

Marks after values point to notes of the source that are not given here.

Regarding `O=C(O)c1cc(Oc2ccc(C(F)(F)F)cc2Cl)ccc1[N+](=O)[O-]` [Acifluorfen], in data set [1] (HepG2 cells, C1, C1, 48 h), the viability at 48 h came out at 105 ± 4.2%. Also, the viability at 48 h in data set [1] (HepG2 cells, C2, C2, 48 h) was determined as 105 ± 4.8%. In data set [1] (HepG2 cells, C3, C3, 48 h), the viability at 48 h worked out at 99.9 ± 1.3%. Besides, the viability at 48 h in data set [1] (HepG2 cells, C4, C4, 48 h) was found to be 58.4 ± 1.5%. Moreover, in data set [1] (HepG2 cells, C5, C5, 48 h), the viability at 48 h came to 27.8 ± 1.3%. Also, the “cytotoxicity (CellTox Green)” value in the data set with HepG2 cells [2] is listed as “low cytotoxicity”. In the data set on HepG2 cells [3], the EC50 was 500 µM, the EC1 was 50 µM, the EC5 is 100 µM and the EC15 was 200 µM. For the same compound, the EC85 with HepG2 cells [3] was 800 µM.

As to `CC(=O)N1CCN(c2ccc(OCC3COC(Cn4ccnc4)(c4ccc(Cl)cc4Cl)O3)cc2)CC1` (stereo not drawn) [Ketoconazole], the viability at 48 h in data set [1] (HepG2 cells, C1, C1, 48 h) was 102 ± 3.1%. Moreover, the viability at 48 h in data set [1] (HepG2 cells, C2, C2, 48 h) came out at 102 ± 0.9%. Also, the viability at 48 h in data set [1] (HepG2 cells, C3, C3, 48 h) was 91.2 ± 1.5%. In data set [1] (HepG2 cells, C4, C4, 48 h), the viability at 48 h was found to be 64.7 ± 1.5%. In addition, the viability at 48 h in data set [1] (HepG2 cells, C5, C5, 48 h) was 28.2 ± 1.9%. In the data set with HepG2 cells [3], the EC50 was 10 µM, the EC1 was 5^b μM, the EC5 is 0.2 µM and the EC15 is 1 µM. Further, in the data set with HepG2 cells [3], the EC85 is 50 µM.

Take `CCC(CC)Nc1c([N+](=O)[O-])cc(C)c(C)c1[N+](=O)[O-]` [Pendimethalin]: the viability at 48 h in data set [1] (C1, C1, 48 h) is 98.3 ± 3.9%. For the same compound, the viability at 48 h in data set [1] (C2, C2, 48 h) came out at 100 ± 2.9%. Further, the viability at 48 h in data set [1] (C3, C3, 48 h) came to 82.4 ± 4.9%. In addition, the viability at 48 h in data set [1] (C4, C4, 48 h) amounted to 36.1 ± 3.2%. In addition, the viability at 48 h in data set [1] (C5, C5, 48 h) stood at 18.5 ± 3.2%. Also, in the data set with HepG2 cells [2], the “cytotoxicity (CellTox Green)” value is listed as “low cytotoxicity”. Also, in the data set with HepG2 cells [3], the EC50 was 94 µM, the EC1 was 24 µM, the EC5 is 39 µM and the EC15 is 56 µM. The EC85 in the data set on HepG2 cells [3] was 157 µM.

On to `Cc1cccc(Nc2cc(Cl)nc(SCC(=O)O)n2)c1C` [Wy-14643], for which, in data set [1] (HepG2 cells, C1, C1, 48 h), the viability at 48 h came out at 101 ± 3.8%. In data set [1] (HepG2 cells, C2, C2, 48 h), the viability at 48 h stood at 97.1 ± 3.1%. The viability at 48 h in data set [1] (HepG2 cells, C3, C3, 48 h) is 94.6 ± 1.8%. Besides, in data set [1] (HepG2 cells, C4, C4, 48 h), the viability at 48 h came out at 46.4 ± 2%. Moreover, the viability at 48 h in data set [1] (HepG2 cells, C5, C5, 48 h) came to 23.2 ± 1.1%. Further, in the data set with HepG2 cells [2], the “cytotoxicity (CellTox Green)” value is given as “low cytotoxicity”. Further, in the data set with HepG2 cells [3], the EC50 was 500 µM, the EC1 was 25 µM, the EC5 was 50 µM and the EC15 was 150 µM. In the data set on HepG2 cells [3], the EC85 is 1000 µM.

For `O=c1cc(-c2ccccc2)oc2ccc3ccccc3c12` [β-naphthoflavone], the viability at 48 h in data set [1] (HepG2 cells, C1, C1, 48 h) was 103 ± 4.3%. In data set [1] (HepG2 cells, C2, C2, 48 h), the viability at 48 h turned out to be 114 ± 3.7%. In addition, the viability at 48 h in data set [1] (HepG2 cells, C3, C3, 48 h) stood at 104 ± 1.6%. In addition, the viability at 48 h in data set [1] (HepG2 cells, C4, C4, 48 h) came out at 34.5 ± 3.4%. The viability at 48 h in data set [1] (HepG2 cells, C5, C5, 48 h) turned out to be 15 ± 2.1%. Further, in the data set on HepG2 cells [2], the “cytotoxicity (CellTox Green)” value was “low cytotoxicity”. Also, in the data set with HepG2 cells [3], the EC50 is 100 µM, the EC1 is 0.1 µM, the EC5 was 1 µM and the EC15 is 10 µM. Further, the EC85 with HepG2 cells [3] is 700 µM.
